From patent publication US20220168307A1, “TREATMENT OF SMA” (Hoffmann-La Roche Inc., priority 2019, published 2022)
Several values for one entry are separate records, joined by “and”; a condition that tells them apart may be missing. Equal values may be shown once. Entries after “also recorded” stand apart in the source; their conditions may differ.

Columns and labels:
CYP1A2 [1] = target: T1, CYP1A2 (Homo sapiens, UniProt P05177); experiment: Time-dependent inhibition (IC50 shift) of CYP1A2 in human liver microsomes; assay type: in vitro ADME; conditions: risdiplam up to 12.5 μM
T1 sequence (P05177 1-516): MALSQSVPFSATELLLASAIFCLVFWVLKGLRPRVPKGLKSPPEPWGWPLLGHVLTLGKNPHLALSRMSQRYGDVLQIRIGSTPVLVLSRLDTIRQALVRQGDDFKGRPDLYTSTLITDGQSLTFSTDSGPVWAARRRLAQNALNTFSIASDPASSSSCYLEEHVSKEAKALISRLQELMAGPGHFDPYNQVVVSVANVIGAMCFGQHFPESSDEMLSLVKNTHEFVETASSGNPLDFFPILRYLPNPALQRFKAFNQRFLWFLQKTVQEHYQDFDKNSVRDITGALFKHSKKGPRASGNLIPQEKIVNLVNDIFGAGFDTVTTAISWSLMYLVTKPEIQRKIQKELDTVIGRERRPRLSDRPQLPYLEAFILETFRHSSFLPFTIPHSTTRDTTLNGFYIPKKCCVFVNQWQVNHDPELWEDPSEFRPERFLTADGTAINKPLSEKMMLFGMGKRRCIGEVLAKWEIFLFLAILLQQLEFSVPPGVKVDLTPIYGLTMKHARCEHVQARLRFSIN
Experimental: (§1) Donors CMV negative for serology are unm
(§2) All incubations were conducted in duplicate.
(§3) % remaining=(C+I/C^−I)*100

CYP3A4 = CYP3A4 (Homo sapiens, UniProt P08684); experiment: in vitro; conditions: for % Remaining: duplicates; for IC50: human, microsomes, 30 min pre-incubation
Experimental: as §1, §2, §3

[2] = Risdiplam treatment of patients with SMA: safety and exposure; assay type: in vivo, human
CYP1A2 [3] = target: T1, CYP1A2; experiment: in vitro; conditions: pooled human liver microsomes, pH 7.4, probe phenacetin
CYP2B6 [4] = target: T2, CYP2B6 (Homo sapiens, UniProt P20813); experiment: in vitro; conditions: pooled human liver microsomes, pH 7.4, probe bupropion
T2 sequence (P20813 1-491): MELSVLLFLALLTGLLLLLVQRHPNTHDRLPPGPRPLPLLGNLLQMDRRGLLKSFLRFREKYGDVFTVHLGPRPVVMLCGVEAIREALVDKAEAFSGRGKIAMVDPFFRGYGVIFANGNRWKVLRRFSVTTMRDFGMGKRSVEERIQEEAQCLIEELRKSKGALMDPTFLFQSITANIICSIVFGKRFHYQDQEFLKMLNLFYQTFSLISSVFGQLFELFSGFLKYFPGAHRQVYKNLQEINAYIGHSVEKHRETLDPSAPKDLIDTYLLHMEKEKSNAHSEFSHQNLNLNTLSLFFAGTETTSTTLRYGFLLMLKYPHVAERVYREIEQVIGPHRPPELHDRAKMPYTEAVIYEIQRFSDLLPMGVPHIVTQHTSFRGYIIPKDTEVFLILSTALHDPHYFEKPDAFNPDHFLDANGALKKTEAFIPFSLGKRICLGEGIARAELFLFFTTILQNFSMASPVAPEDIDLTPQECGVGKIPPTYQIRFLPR

CYP2C8 = target: T3, CYP2C8 (Homo sapiens, UniProt P10632); experiment: in vitro; conditions: pooled human liver microsomes, pH 7.4, probe amodiaquine
T3 sequence (P10632 1-490): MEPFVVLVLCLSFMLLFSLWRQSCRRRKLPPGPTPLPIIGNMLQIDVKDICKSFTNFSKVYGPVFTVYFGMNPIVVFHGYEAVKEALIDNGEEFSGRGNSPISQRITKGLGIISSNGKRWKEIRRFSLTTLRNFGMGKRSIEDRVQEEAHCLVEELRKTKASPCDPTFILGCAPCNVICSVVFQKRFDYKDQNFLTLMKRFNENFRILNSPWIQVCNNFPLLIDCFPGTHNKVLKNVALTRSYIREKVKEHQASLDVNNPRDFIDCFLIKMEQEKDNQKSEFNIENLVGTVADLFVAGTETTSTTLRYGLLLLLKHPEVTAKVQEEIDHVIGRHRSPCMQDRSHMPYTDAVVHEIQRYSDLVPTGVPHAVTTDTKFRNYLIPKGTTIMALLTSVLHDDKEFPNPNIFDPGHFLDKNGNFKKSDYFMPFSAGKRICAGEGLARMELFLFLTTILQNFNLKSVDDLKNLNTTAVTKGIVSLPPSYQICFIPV

CYP2D6 = CYP2D6 (Homo sapiens, UniProt P10635); experiment: in vitro; conditions: pooled human liver microsomes, pH 7.4, probe dextromethorphan, % Control activity at, direct inhibition, substrate Dextromethorphan, concentration not given, duplicates
CYP2B6 [5] = target: T2, CYP2B6; experiment: Direct inhibition of CYP2B6 (bupropion) in human liver microsomes
CYP2C19 = CYP2C19 (Homo sapiens, UniProt P33261); experiment: Time-dependent inhibition (IC50 shift) of CYP2C19 in human liver microsomes; conditions: risdiplam up to 12.5 μM
Sequence of CYP2C19 (P33261 whole entry): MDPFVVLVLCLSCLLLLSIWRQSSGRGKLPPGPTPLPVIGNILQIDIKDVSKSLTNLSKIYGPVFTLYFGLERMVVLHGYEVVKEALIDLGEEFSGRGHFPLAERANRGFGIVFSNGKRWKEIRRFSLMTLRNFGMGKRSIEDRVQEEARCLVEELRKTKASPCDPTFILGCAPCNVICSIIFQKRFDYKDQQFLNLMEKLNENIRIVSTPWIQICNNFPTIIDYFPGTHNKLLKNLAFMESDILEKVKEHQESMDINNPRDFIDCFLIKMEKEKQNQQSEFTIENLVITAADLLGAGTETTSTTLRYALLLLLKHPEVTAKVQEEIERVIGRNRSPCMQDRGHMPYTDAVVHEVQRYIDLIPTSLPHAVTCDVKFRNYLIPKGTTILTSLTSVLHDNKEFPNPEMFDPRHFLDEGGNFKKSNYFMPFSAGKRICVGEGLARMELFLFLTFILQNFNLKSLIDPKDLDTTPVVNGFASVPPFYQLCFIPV

Sequence of CYP3A4 (P08684 2-503): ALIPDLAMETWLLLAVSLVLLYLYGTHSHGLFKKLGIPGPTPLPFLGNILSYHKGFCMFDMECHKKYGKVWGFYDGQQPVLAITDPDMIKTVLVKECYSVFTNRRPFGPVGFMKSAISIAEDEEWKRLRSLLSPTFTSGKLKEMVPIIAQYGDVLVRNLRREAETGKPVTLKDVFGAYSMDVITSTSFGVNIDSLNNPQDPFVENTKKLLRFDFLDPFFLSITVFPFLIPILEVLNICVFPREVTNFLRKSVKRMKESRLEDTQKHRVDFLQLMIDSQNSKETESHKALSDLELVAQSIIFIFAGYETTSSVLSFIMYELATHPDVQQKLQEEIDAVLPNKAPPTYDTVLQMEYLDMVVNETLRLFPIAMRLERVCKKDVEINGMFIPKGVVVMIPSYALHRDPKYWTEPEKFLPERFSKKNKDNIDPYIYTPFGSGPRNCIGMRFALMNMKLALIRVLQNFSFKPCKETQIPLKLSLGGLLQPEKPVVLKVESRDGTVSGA
Sequence of CYP2D6 (P10635 whole entry): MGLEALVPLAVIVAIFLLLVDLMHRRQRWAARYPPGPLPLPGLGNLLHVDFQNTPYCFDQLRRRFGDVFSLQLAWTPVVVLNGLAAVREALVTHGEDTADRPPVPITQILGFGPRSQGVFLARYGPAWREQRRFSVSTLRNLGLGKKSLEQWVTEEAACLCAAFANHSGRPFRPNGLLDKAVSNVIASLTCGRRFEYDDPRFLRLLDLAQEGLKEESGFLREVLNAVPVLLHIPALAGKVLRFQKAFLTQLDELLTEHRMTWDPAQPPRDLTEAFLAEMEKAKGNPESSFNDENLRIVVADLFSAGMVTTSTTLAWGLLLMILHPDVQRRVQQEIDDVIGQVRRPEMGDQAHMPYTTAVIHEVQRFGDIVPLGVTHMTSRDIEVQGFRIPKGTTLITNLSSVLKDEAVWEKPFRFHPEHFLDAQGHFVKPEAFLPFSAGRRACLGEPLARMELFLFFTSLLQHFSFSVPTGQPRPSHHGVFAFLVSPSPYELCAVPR

## Cc1cn2nc(-c3cc(=O)n4cc(N5CCNC6(CC6)C5)ccc4n3)cc(C)c2n1 [risdiplam, 7-(4,7-diazaspiro[2.5]octan-7-yl)-2-(2,8-dimethylimidazo[1,2-b]pyridazin-6-yl)pyrido[1,2-a]pyrimidin-4-one]
CYP1A2 [1]
  time-dependent inhibition (in words): did not show any significant reversible or time-dependent inhibition; also recorded: No significant reversible or time-dependent inhibition; also recorded: No significant time-dependent inhibition; also recorded: low potential to cause direct or time-dependent inhibition
CYP3A4; CYP3A4-Midazolam, minus NADPH, risdiplam pre-incubation 0.10 μM
  % Remaining: 88% and 103%
CYP3A4; CYP3A4-Midazolam, minus NADPH, risdiplam pre-incubation 0.20 μM
  % Remaining: 99% and 103%
CYP3A4; CYP3A4-Midazolam, minus NADPH, risdiplam pre-incubation 0.50 μM
  % Remaining: 99% and 108%
CYP3A4; CYP3A4-Midazolam, minus NADPH, risdiplam pre-incubation 1.3 μM
  % Remaining: 99% and 110%
CYP3A4; CYP3A4-Midazolam, minus NADPH, risdiplam pre-incubation 3.2 μM
  % Remaining: 99% and 100%
CYP3A4; CYP3A4-Midazolam, minus NADPH, risdiplam pre-incubation 8.0 μM
  % Remaining: 95% and 106%
CYP3A4; CYP3A4-Midazolam, minus NADPH, risdiplam pre-incubation 12.5 μM
  % Remaining: 115% and 108%
CYP3A4; CYP3A4-Midazolam, plus NADPH, risdiplam pre-incubation 0.10 μM
  % Remaining: 101% and 105%
CYP3A4; CYP3A4-Midazolam, plus NADPH, risdiplam pre-incubation 0.20 μM
  % Remaining: 101% and 109%
CYP3A4; CYP3A4-Midazolam, plus NADPH, risdiplam pre-incubation 0.50 μM
  % Remaining: 94% and 109%
CYP3A4; CYP3A4-Midazolam, plus NADPH, risdiplam pre-incubation 1.3 μM
  % Remaining: 90% and 96%
CYP3A4; CYP3A4-Midazolam, plus NADPH, risdiplam pre-incubation 3.2 μM
  % Remaining: 60% and 64%
CYP3A4; CYP3A4-Midazolam, plus NADPH, risdiplam pre-incubation 8.0 μM
  % Remaining: 28% and 30%
CYP3A4; CYP3A4-Midazolam, plus NADPH, risdiplam pre-incubation 12.5 μM
  % Remaining: 22% and 21%
CYP3A4; CYP3A4-Testosterone, minus NADPH, risdiplam pre-incubation 0.10 μM
  % Remaining: 101% and 99%
CYP3A4; CYP3A4-Testosterone, minus NADPH, risdiplam pre-incubation 0.20 μM
  % Remaining: 94% and 93%
CYP3A4; CYP3A4-Testosterone, minus NADPH, risdiplam pre-incubation 0.50 μM
  % Remaining: 100% and 93%
CYP3A4; CYP3A4-Testosterone, minus NADPH, risdiplam pre-incubation 1.3 μM
  % Remaining: 102% and 95%
CYP3A4; CYP3A4-Testosterone, minus NADPH, risdiplam pre-incubation 3.2 μM
  % Remaining: 93% and 102%
CYP3A4; CYP3A4-Testosterone, minus NADPH, risdiplam pre-incubation 8.0 μM
  % Remaining: 90% and 88%
CYP3A4; CYP3A4-Testosterone, minus NADPH, risdiplam pre-incubation 12.5 μM
  % Remaining: 89%
CYP3A4; CYP3A4-Testosterone, plus NADPH, risdiplam pre-incubation 0.10 μM
  % Remaining: 97% and 95%
CYP3A4; CYP3A4-Testosterone, plus NADPH, risdiplam pre-incubation 0.20 μM
  % Remaining: 98% and 93%
CYP3A4; CYP3A4-Testosterone, plus NADPH, risdiplam pre-incubation 0.50 μM
  % Remaining: 94% and 92%
CYP3A4; CYP3A4-Testosterone, plus NADPH, risdiplam pre-incubation 1.3 μM
  % Remaining: 90% and 85%
CYP3A4; CYP3A4-Testosterone, plus NADPH, risdiplam pre-incubation 3.2 μM
  % Remaining: 63% and 62%
CYP3A4; CYP3A4-Testosterone, plus NADPH, risdiplam pre-incubation 8.0 μM
  % Remaining: 23% and 24%
CYP3A4; CYP3A4-Testosterone, plus NADPH, risdiplam pre-incubation 12.5 μM
  % Remaining: 13%
CYP3A4; pH 7.4, IC50, CYP3A4-Midazolam Inactivation, minus NADPH
  IC50: > 12.5 µM
CYP3A4; pH 7.4, IC50, CYP3A4-Midazolam Inactivation, plus NADPH
  IC50: 4.8 µM
CYP3A4; pH 7.4, IC50, CYP3A4-Testosterone Inactivation, minus NADPH
  IC50: > 12.5 µM
CYP3A4; pH 7.4, IC50, CYP3A4-Testosterone Inactivation, plus NADPH
  IC50: 4.1 µM
[2]; 5 mg risdiplam, more than 1 year of treatment, patients with SMA
  safety and tolerability (in words): safe and well tolerated
[2]; human, in vivo, SMA patients, steady state, read-out: mean AUCtau at steady state (therapeutic exposure observed in SMA patients)
  AUC: 2000 ng·h/mL
CYP1A2 [3]
  activity: 94%
CYP2B6 [4]
  activity: 88%
CYP2C8
  activity: 93%
CYP2D6
  activity: 97%
CYP2B6 [5]; direct inhibition, substrate Bupropion, concentration not given, duplicates
  % Control activity at: 94%
CYP2B6 [5]; risdiplam up to 12.5 μM
  reversible (direct) inhibition (in words): did not show any significant reversible or time-dependent inhibition; also recorded: No significant reversible or time-dependent inhibition; also recorded: No significant reversible inhibition; also recorded: low potential to cause direct or time-dependent inhibition
CYP2C19
  time-dependent inhibition (in words): did not show any significant reversible or time-dependent inhibition; also recorded: No significant reversible or time-dependent inhibition; also recorded: No significant time-dependent inhibition; also recorded: low potential to cause direct or time-dependent inhibition
